# Test results: patent US7538123B2, “Indole derivative having piperidine ring” (Eisai R & D Management Co., Ltd., priority 2004, dated 2009)
# Experiments:
# 5-HT1A receptor = target: T1, 5-HT1A receptor (Sus scrofa, UniProt A0A4X1UTF5); assay: Test regarding affinity for serotonin 1A receptor ([3H]MPPF binding inhibition); set-up: species or system swine
# T1 construct: from tissue; host or cells: swine hippocampus, membrane fraction
# T1 sequence (A0A4X1UTF5 1-422): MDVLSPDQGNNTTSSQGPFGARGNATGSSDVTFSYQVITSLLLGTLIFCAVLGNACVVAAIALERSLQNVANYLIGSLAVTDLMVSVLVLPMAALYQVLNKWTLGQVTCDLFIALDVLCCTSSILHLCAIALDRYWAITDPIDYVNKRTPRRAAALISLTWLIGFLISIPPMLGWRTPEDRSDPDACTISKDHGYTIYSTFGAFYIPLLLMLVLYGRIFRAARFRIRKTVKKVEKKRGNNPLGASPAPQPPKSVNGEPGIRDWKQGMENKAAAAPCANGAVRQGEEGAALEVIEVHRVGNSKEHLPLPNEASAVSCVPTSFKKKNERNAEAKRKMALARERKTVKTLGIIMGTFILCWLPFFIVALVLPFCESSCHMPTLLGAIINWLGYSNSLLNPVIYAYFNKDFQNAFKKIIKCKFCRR
# Excerpt: (1) The affinity of a test substance for a 5-HT1A receptor was examined by an inhibition experiment, in which the inhibitory effect of the test substance against the binding of [^3H]-4-(2′-methoxy)phenyl-1-(2′-(N-2″-pyridinyl)-p-fluorobenzamido)ethyl-piperazine (MPPF) that selectively binds to the 5-HT1A receptor in a swine hippocampal membrane fraction was examined. The 5-HT1A receptor that is a G-protein binding receptor becomes a G-protein binding state with addition of MgCl2. In contrast, it becomes a G-protein non-binding state with addition of guanylylimido diphosphate (Gpp(NH)p). […] Thus, both the affinity of a test substance to the receptor that was in a state of not binding to the G-protein and the affinity of the test substance to the receptor that was in a state of binding to the G-protein were obtained. […]
# A mixture (0.5 ml) used for incubation comprised an appropriate amount of the membrane fraction, a test substance with a desired concentration, MgCl2 (final concentration: 10 mM) or Gpp(NH)p (final concentration: 1 mm ), [^3H]MPPF (final concentration: 0.5 nM), dimethyl sulfoxide (final concentration: 1% (v/v)), and a 50 mM Tris-Hcl buffer (pH 7.4). […] Thereafter, radioactivity binding to the receptor was measured with a liquid scintillation counter. Non-specific binding was defined as binding detected in the presence of 10 μM WAY-100,635.
# serotonin 1A receptor = target: T2, serotonin 1A receptor (Mus musculus, UniProt Q64264); assay: Antagonistic effect on serotonin 1A receptor agonist-induced hypothermia in mouse; format: in vivo; conditions: for ED50: sc, 15 minutes before 8-hydroxy-dipropylaminotetralin 0.5 mg/kg sc, inhibition of hypothermia, CD-1 (ICR) male mice, read-out: ED50
# T2 construct: into the rectum of CD-1 (ICR) male mice (25-45 g); from tissue; host or cells: living CD-1 (ICR) male mice (whole animal)
# T2 sequence (Q64264 1-421): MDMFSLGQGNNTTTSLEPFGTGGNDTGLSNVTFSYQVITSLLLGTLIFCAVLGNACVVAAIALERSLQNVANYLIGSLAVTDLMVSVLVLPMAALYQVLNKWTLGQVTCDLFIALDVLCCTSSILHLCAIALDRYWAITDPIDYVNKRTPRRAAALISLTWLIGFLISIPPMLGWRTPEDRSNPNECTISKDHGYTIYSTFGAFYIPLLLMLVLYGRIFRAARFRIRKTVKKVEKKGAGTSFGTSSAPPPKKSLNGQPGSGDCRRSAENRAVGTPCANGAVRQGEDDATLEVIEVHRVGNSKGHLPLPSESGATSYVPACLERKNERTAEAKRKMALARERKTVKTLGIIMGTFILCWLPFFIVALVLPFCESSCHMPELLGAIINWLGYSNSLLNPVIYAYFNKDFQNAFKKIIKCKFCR
# Description: (1) A thermistor probe was inserted at a depth of approximately 2 cm into the rectum of CD-1 (ICR) male mice (25-45 g), so as to measure the body temperature thereof. Body temperature is decreased by subcutaneous administration of serotonin 1A receptor agonist (8-hydroxy-dipropylaminotetralin) 0.5 mg/kg. Since a serotonin 1A antagonist inhibits such action, the antagonistic effect of a test substance to a serotonin 1A receptor was evaluated using the inhibitory effect of the hypothermia as an index. A test substance was administered 15 minutes before the administration of the serotonin 1A agonist. A serotonin 1A partial agonist alone decreases the body temperature, depending on the degree of the agonistic action thereof. In addition, it has a weak antagonistic effect on 8-hydroxy-dipropylaminotetralin-induced hypothermia. (2) Results
SMILES,ED50 (serotonin 1A receptor) [mg/kg],also measured
"COc1cc2c(cc1CCN1CCC(n3ccc4ccc(C(N)=O)cc43)CC1)N(C)C(=O)OC2 [Compound 39, 1-{1-[2-(6-methoxy-methyl-oxo-1,4-dihydro-2H-benz[d][1,3]oxazin-7-yl)ethyl]piperidin-4-yl}-1H-indole-6-carboxamide]",–,"L/H ratio (5-HT1A receptor; low affinity IC50 divided by high affinity IC50, 1 or smaller = no intrinsic activity, 2 or greater = intrinsic activity): 0.7"
"NC(=O)c1ccc2ccn(C3CCN(CCc4ccc(F)cc4)CC3)c2c1 [Compound A, reference compound]",> 1,affinity for 5-HT1A / receptor binding action (in words) (5-HT1A receptor): has affinity; antagonistic effect against the 5-HT1A receptor / pharmacological effect (in words) (serotonin 1A receptor; in vivo): weak
"COc1ccc2c(c1CCN1CCC(n3ccc4ccc(C(N)=O)cc43)CC1)CCN(C)C2=O [Compound 34, 1-(1-(2-(6-methoxy-2-methyl-1-oxo-1,2,3,4-tetrahydroisoquinolin-5-yl)ethyl)piperidin-4-yl)-1H-indole-6-carboxamide]",0.37,–
"COc1ccc2c(c1CCN1CCC(n3ccc4ccc(C(N)=O)cc43)CC1)OCCO2 [Compound 32, 1-{1-[2-(6-methoxy-2,3-dihydrobenz[1,4]dioxin-5-yl)ethyl]piperidin-4-yl}-1H-indole-6-carboxamide]",0.04,–
"COc1ccc2c(c1CCN1CCC(n3ccc4ccc(C(N)=O)cc43)CC1)OCCC2O (stereo not drawn) [Compound 46, 1-{1-[2-(4-hydroxy-7-methoxychroman-8-yl)ethyl]piperidin-4-yl}-1H-indole-6-carboxamide]",0.3,–
"CCn1c(=O)oc2cc(OC)c(CCN3CCC(n4ccc5ccc(C(N)=O)cc54)CC3)cc21 [Compound 60, 1-{1-[2-(3-ethyl-6-methoxy-2-oxo-2,3-dihydrobenzoxazol-5-yl)ethyl]piperidin-4-yl}-1H-indole-6-carboxamide]",0.52,–
"COc1ccc2c(=O)ccoc2c1CCN1CCC(n2ccc3ccc(C(N)=O)cc32)CC1 [Compound 35, 1-{1-[2-(7-methoxy-4-oxo-4H-chromen-8-yl)ethyl]piperidin-4-yl}-1H-indole-6-carboxamide]",0.2,–
